{
  "source": "patent US9643959B2",
  "about": "“Tubulin polymerization inhibitor and method for synthesizing same” (KOREA RESEARCH INSTITUTE OF BIOSCIENCE AND BIOTECHNOLOGY, priority 2013, dated 2017)",
  "test_system": "cell proliferation",
  "assay": "screening of the small-molecule library for materials that can inhibit cell proliferation",
  "format": "cell-based",
  "conditions": "screen of small-molecule library; no data or method given",
  "data": [
    {"smiles": "CCOC(=O)Cn1c(C)c(/C=N/NC(=O)c2cc3c(ccc4ccccc43)o2)c2ccccc21", "note": "[Compound 7, (E)-ethyl 2-(2-methyl-3-((2-(naphtho[2,1-b]furan-2-carbonyl)hydrazono)methyl)-1H-indol-1-yl)acetate]", "values": [
      {"measurement": "activity of inhibiting mitosis", "value": "has an activity of inhibiting mitosis"}
    ]}
  ]
}
